# According to ChEMBL document CHEMBL1201862, “PubChem BioAssay data set” (2004):
# Calls of active or inactive are those of the source.
# Columns and labels:
# [1] = biological target: Luciferin 4-monooxygenase (Photinus pyralis, UniProt P08659); test: inhibition of purified Photinus pyralis luciferase – biochemical, luminescence, dose response (AID 1891)
# [2] = Luminescence Cell-Based Dose Confirmation HTS to Identify Inhibitors of Platelet Dense Granule Release. [Related pubchem assays: 1663 (Primary HTS), 1678 (Summary of Project)]; assay type: functional
# [3] = biological target: T1, Heat shock factor protein 1 (Mus musculus, UniProt P38532); test: enhancement of HSF1-driven luciferase signal – cell-based, NIH3T3, luminescence, dose retest, confirmation (AID 435004); assay type: functional;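 further: stress induced by proteasome inhibitor MG132 added 30 min after compound; luciferase reporter driven by HSF1 response element in NIH3T3 cells; actives raise luminescence as potentiators of the MG132 stress response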
# T1 sequence (P38532 whole entry): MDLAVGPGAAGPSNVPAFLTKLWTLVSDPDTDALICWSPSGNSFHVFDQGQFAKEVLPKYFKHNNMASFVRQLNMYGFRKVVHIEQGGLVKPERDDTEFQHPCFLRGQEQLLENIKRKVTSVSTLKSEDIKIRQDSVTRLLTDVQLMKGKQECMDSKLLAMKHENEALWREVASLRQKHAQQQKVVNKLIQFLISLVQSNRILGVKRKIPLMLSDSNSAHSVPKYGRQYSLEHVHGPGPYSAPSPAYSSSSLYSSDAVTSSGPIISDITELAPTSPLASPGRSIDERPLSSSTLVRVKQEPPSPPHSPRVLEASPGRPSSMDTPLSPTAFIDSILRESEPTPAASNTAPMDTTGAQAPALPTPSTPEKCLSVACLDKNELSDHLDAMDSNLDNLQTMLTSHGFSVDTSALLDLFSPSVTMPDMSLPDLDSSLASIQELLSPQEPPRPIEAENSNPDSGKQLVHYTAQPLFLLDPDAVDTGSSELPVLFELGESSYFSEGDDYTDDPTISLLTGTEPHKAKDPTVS
# Cytochrome P450 3A4 = Cytochrome P450 3A4 (Homo sapiens, UniProt P08684);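 further: CYP3A4 tested as one member of a cytochrome P450 panel screen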
# Cytochrome P450 3A4, sequence (P08684 whole entry): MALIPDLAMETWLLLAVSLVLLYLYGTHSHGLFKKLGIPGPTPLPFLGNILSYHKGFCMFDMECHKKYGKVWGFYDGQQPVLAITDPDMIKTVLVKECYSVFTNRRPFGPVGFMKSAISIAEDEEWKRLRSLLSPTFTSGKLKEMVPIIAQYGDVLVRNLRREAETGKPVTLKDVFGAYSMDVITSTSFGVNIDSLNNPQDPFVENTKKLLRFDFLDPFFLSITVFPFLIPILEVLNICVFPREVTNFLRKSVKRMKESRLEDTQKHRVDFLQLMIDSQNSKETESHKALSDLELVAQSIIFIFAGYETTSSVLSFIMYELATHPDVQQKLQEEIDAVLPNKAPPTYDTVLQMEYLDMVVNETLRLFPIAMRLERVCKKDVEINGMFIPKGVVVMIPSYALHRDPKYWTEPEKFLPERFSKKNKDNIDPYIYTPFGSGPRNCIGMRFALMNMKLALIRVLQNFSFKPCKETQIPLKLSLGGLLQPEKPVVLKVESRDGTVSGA
# INS1 = test: INS-1E survival protection against cytokine death – cell-based, luminescence, retest, dose response (AID 449756); assay type: functional; conditions: Rattus norvegicus;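 further: cell death triggered by IL-1 beta plus TNF-alpha plus IFN-gamma mixture; protective hits raise ATP signal compared with cytokine alone wells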
# [4] = viability of PTEN-deleted HCT116 cells – cell-based, HCT116 PTEN knockout, dose response (AID 1047); assay type: functional;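 further: HCT116 colon tumor cells with PTEN knocked out; cells exposed to compound for 60 hours before readout; potency for loss of cell viability measured by luminescence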
# [5] = viability of HCT116 lacking mutant beta-catenin – cell-based, human colon tumor, dose response (AID 1045); assay type: functional;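 further: HCT116 colon tumor cells with beta catenin knocked out; cells exposed to compound for 60 hours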
# [6] = viability of uninfected HEp-2 cells – cell-based, HTS, cytotoxicity control for RSV inhibitor project, dose response (AID 2410); assay type: functional; conditions: human respiratory syncytial virus
# [7] = test system: Streptococcus sp. 'group A'; test: Streptococcus pyogenes SK(-)GAS viability under kanamycin – luminescence, BacTiterGlo, confirmation, counter-screen for streptokinase expression inhibitor project, dose response (AID 1900); assay type: functional, organism-based
# Streptokinase A = biological target: T2, Streptokinase A (Streptococcus pyogenes serotype M1, UniProt P10520); test: viability-normalized secreted streptokinase activity reduction – plasminogen activation absorbance, OD405, dose response (AID 1914); assay type: functional, Streptococcus pyogenes M1 GAS;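 further: secreted streptokinase activity via plasminogen activation per viability signal from cell pellet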
# T2 sequence (P10520 whole entry): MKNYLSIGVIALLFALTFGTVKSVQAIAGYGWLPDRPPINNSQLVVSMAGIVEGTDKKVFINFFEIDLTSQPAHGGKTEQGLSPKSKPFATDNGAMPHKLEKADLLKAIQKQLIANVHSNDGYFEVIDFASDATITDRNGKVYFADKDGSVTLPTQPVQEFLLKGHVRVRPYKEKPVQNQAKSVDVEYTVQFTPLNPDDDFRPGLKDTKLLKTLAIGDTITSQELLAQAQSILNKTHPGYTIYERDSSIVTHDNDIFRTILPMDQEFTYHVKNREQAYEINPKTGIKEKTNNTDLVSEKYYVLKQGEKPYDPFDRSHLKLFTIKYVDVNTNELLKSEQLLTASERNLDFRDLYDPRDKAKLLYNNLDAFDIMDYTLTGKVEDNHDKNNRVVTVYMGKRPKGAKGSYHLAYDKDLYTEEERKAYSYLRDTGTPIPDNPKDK
# Streptococcus = test: GAS UMAA2166 growth inhibition – luminescence, BacTiterGlo, counter-screen for streptokinase expression inhibitor project, dose response (AID 1915); assay type: functional, organism-based;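 further: potency for reduction of bacterial viability or growth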
# Cytochrome P450 2C19 = Cytochrome P450 2C19 (Homo sapiens, UniProt P33261); test: Cytochrome panel assay with activity outcomes. Panel member name: p450-cyp2c19 Compounds with AC50 equal or less than 10 uM are considered active; assay type: functional
# Cytochrome P450 2C19, sequence (P33261 whole entry): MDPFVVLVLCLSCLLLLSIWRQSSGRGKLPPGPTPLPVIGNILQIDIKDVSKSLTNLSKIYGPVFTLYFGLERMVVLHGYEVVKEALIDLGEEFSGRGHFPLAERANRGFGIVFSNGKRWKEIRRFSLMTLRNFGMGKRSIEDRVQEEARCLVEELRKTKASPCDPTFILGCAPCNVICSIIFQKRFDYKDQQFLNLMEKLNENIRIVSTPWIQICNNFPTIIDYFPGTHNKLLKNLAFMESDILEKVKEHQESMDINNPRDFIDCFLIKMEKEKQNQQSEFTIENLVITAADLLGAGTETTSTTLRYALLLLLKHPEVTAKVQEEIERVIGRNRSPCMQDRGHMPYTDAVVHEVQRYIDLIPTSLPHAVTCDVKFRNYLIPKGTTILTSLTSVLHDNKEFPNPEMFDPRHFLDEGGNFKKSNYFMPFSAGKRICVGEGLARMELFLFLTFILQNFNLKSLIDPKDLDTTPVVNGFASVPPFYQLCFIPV
# [8] = Luminescence Cell-Based Dose Retest to Confirm Inhibitors of Cancer Stem Cells. [Related pubchem assays (depositor defined):AID2717, AID2721]; assay type: functional, Homo sapiens; conditions: Homo sapiens
# [9] = Trypanosoma cruzi growth suppression in host cells – NIH3T3 host cells, beta-gal luminescence, confirmation (AID 2044); assay type: functional, cell-based;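 further: intracellular parasites grown in NIH/3T3 mouse fibroblasts as host cells; luminescent beta-galactosidase reporter signal from transgenic T. cruzi replicating inside host cells; inhibitors lower the luminescence signal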
# [10] = NIH3T3 cell viability loss – ATP luminescence, mouse fibroblasts, counter-screen, dose response (AID 2010); assay type: functional, cell-based;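 further: cells exposed to compound for about 90 hours before reading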
# Luciferin 4-monooxygenase, sequence (P08659 whole entry): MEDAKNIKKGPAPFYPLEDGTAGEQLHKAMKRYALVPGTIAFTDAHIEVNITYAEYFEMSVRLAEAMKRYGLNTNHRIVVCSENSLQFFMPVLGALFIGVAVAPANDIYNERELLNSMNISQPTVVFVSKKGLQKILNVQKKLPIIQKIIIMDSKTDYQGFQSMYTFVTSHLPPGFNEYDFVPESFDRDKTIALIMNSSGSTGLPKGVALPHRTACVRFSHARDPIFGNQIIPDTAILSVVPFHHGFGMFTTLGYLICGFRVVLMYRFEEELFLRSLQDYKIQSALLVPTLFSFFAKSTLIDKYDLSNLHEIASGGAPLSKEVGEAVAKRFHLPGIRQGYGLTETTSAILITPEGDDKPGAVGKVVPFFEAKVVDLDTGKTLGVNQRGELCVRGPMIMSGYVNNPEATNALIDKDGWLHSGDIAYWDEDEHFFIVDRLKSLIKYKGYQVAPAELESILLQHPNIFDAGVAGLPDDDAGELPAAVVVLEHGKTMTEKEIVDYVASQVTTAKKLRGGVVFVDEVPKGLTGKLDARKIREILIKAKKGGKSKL
compound,measurement,setting,value
Cc1ccc(NS(=O)(=O)c2cccc(C(=O)N3CCCCCCC3)c2)cc1,EC50,[1],> 112 µM (not active)
same,EC50,[2],> 112 µM (not active)
NS(=O)(=O)c1ccc(NC(=O)CN2C(=O)CCC2=O)cc1,EC50,[3],> 260 µM (inactive)
COCCn1c(=O)c(-c2cc(F)cc(F)c2)nc2cncnc21,AC50,Cytochrome P450 3A4,15.8 µM (inconclusive)
COc1ccccc1C(=O)COC(=O)/C=C/c1ccccc1,EC50,[1],> 112 µM (not active)
same,EC50,[2],> 112 µM (not active)
O=C(/C=C/c1ccc(-c2ccccc2)cc1)NCc1cccnc1,AC50,INS1,7.49 µM (active)
CC[C@]1(c2ccccc2OC)ON(c2ccccc2C(F)(F)F)C1=O,AC50,INS1,1.75 µM (active)
COc1ccc(Cl)cc1NC(=O)c1cc(S(=O)(=O)N2CCCC2)cn1C,EC50,[1],> 112 µM (not active)
same,EC50,[2],> 112 µM (not active)
Cc1cccc(OCC(=O)Nc2ccc3c(c2)nc(CCN2CCCCC2)n3C)c1,EC50,[3],> 260 µM (inactive)
Cc1cccc(-[n+]2c(C)cc(C)c3c(=O)[nH]c(=O)[nH]c32)c1,EC50,[3],> 260 µM (inactive)
Cc1cc(C(C)(C)C)c(OCCCN2CCOCC2)c(C(C)(C)C)c1,AC50,Cytochrome P450 3A4,3.16 µM (inconclusive)
NC(=O)c1c(NC(=O)c2ccc(S(=O)(=O)N(CCCl)CCCl)cc2)sc2c1CCCCC2,EC50,[4],15 µM (active)
same,EC50,[5],20.5 µM (active)
COCCn1c(N)c(C(=O)Nc2sc3c(c2C(=O)OC)CCCC3)c2nc3ccccc3nc21,CC50,[6],> 50 µM (active)
same,EC50,[7],1.83 µM (active)
same,EC50,Streptokinase A,> 150 µM (not active)
same,EC50,Streptococcus,82.4 µM (active)
COc1cc(NC(=S)N2CCN(C/C=C/c3ccccc3)CC2)cc(OC)c1,EC50,[1],> 112 µM (not active)
same,EC50,[2],> 112 µM (not active)
COc1cc(C2c3c(-c4cc(Cl)c(C)cc4O)n[nH]c3C(=O)N2Cc2cccnc2)ccc1O (stereo unspecified),EC50,[1],> 112 µM (not active)
same,EC50,[2],85 µM (active)
COc1ccc(OC)c2sc(NC(=O)CCS(=O)(=O)c3ccccc3)nc12,EC50,[4],81.3 µM (active)
same,EC50,[5],62 µM (active)
CCc1ccc2c(c1)C1(NN=C(c3ccc(C)cc3)S1)C(=O)N2 (stereo unspecified),EC50,[4],4.58 µM (active)
same,EC50,[5],2.81 µM (active)
CCN=C(S)NNC(=O)c1cc(-c2cccc(OC)c2)nc2ccccc12,EC50,[1],0.259 µM (active)
same,EC50,[2],7.86 µM (active)
CC(C)c1cccc2nc3c(c(C(C)(C)C)c12)Cn1c-3cccc1=O,AC50,Cytochrome P450 2C19; read-out: AC50,25.1 µM (inconclusive)
same,AC50,Cytochrome P450 3A4,5.01 µM (inconclusive)
C=C(CC1([C@@H](NP(=O)(c2ccccc2)c2ccccc2)[C@H]2C[C@@H]2CCCC)CC1)c1ccccc1,EC50,[7],2.27 µM (active)
same,EC50,Streptokinase A,> 150 µM (not active)
same,EC50,Streptococcus,4.4 µM (active)
same,AC50,[8],3.22 µM (active)
same,AC50,Cytochrome P450 2C19; read-out: AC50,7.94 µM (inconclusive)
Cc1nc2ccccc2n1CC(=O)N/N=C\c1ccccn1,AC50,Cytochrome P450 2C19,inconclusive
O=C(NCCN1CCN(C(=O)c2ccc(Br)cc2)CC1)c1ccc(Br)cc1,EC50,[3],> 260 µM (inactive)
CN(C)CCNc1ccccn1,AC50,Cytochrome P450 2C19,inconclusive
Cc1cc(NC(=O)Cn2nc(C)c([N+](=O)[O-])c2C)no1,EC50,[1],> 112 µM (not active)
same,EC50,[2],> 112 µM (not active)
Nc1c(C(=O)NCCN2CCOCC2)c2nc3ccccc3nc2n1CCc1ccccc1,EC50,[4],15.4 µM (active)
same,EC50,[5],17.9 µM (active)
[O-][n+]1c2c([n+]([O-])c3cc(F)c(F)cc31)CCCC2,AC50,Cytochrome P450 2C19; read-out: AC50,1 µM (inconclusive)
Fc1ccc2nc(Nc3nc4c(F)cc(F)cc4s3)sc2c1,AC50,INS1,7.02 µM (active)
CC1CCN(C(c2ccc(N(C)C)cc2)c2nnnn2Cc2ccccc2)CC1 (stereo unspecified),EC50,[3],> 260 µM (inactive)
CC1CC(OC(=O)CN2CCCCC2)CC(C)(C)C1 (stereo unspecified),EC50,[1],> 112 µM (not active)
same,EC50,[2],> 112 µM (not active)
C=CCNC(=O)/C(C#N)=C/c1c(N(Cc2ccccc2)Cc2ccccc2)nc2ccccn2c1=O,EC50,[4],26 µM (active)
same,EC50,[5],25.3 µM (active)
O=[N+]([O-])c1cccc(/C=C/c2nc(/C=N/c3ccc4ccccc4c3)c(O)o2)c1,EC50,[4],12.8 µM (active)
same,EC50,[5],18 µM (active)
COc1c(/C=N/Nc2nc(N3CCCCC3)nc(N3CCCCC3)n2)cccc1[N+](=O)[O-],AC50,Cytochrome P450 2C19; read-out: AC50,7.94 µM (inconclusive)
CCOC(=O)C1=C(c2ccccc2)N=c2s/c(=C\c3cccc(O)c3)c(=O)n2C1c1cccs1 (stereo unspecified),EC50,[4],15 µM (active)
same,EC50,[5],15.1 µM (active)
same,AC50,[8],2.94 µM (active)
c1ccc2[nH]c(-c3nc4ccccc4[nH]3)nc2c1,EC50,[1],2.11 µM (active)
same,EC50,[2],3.25 µM (active)
Cc1c(C(=O)Nc2ccc(-c3nnc4n3CCCCC4)cc2)oc2c1ccc1ccccc12,EC50,[9],1.45 µM (active)
same,EC50,[4],19.8 µM (active)
same,EC50,[10],> 60 µM (not active)
same,EC50,[5],20.9 µM (active)
same,AC50,[8],2.48 µM (active)
Cc1ccc2c(c1)C1CCCC3C1N2CC(=O)N3Cc1ccccc1 (stereo unspecified),EC50,[4],33.9 µM (active)
same,EC50,[5],62.7 µM (active)
COc1ccc2[nH]cc(C=O)c2c1,AC50,Cytochrome P450 2C19; read-out: AC50,28.2 µM (inconclusive)
COCC(=O)N/N=C/c1ccc(Sc2nc3ccccc3s2)o1,AC50,Cytochrome P450 3A4,22.4 µM (inconclusive)
CC(C)(C)NC(=O)C(c1ccccn1)N(C(=O)C1CSC(=O)C1)c1ccc(F)cc1 (stereo unspecified),AC50,Cytochrome P450 3A4,0.794 µM (inconclusive)
COCCNC(=O)c1cn(Cc2c(F)cccc2Cl)nn1,EC50,[1],> 112 µM (not active)
same,EC50,[2],> 112 µM (not active)
CCOC(=O)C1=NN(C(=O)Nc2ccc(OC)cc2)C2C(=O)N(c3cccc(C(F)(F)F)c3)C(=O)C12 (stereo unspecified),EC50,[1],> 112 µM (not active)
same,EC50,[2],27.2 µM (active)
CC(Nc1nc(N2CCCC2)nc2ccccc12)c1ccccc1 (stereo unspecified),EC50,[9],0.568 µM (active)
same,EC50,[4],5.65 µM (active)
same,EC50,[10],55.9 µM (active)
same,EC50,[5],4.31 µM (active)
COc1ccc(/C(C)=N/Nc2nc(C)cc(-c3ccccc3)n2)cc1,AC50,INS1,0.703 µM (active)
COC(=O)c1ccc2c(=O)n(-c3ccccc3)c(SCN3C(=O)c4ccccc4C3=O)nc2c1,AC50,INS1,6.09 µM (active)
C=CCNC(=O)c1ccc2nc(-c3ccccc3)c(-c3ccccc3)nc2c1,AC50,Cytochrome P450 2C19; read-out: AC50,39.8 µM (inconclusive)
O=C(N/N=C\c1ccc(CNS(=O)(=O)c2ccc(Cl)cc2)o1)C(=O)Nc1ccc(Oc2ccccc2)cc1,EC50,[4],9.47 µM (active)
same,EC50,[5],11.1 µM (active)
CCN(CC)c1ccc(C(=O)N/N=C/c2ccccc2OC(F)F)cc1,AC50,INS1,5.97 µM (active)
O=C(c1ccco1)N1CCC2(CCCN(c3ccccc3)C2)CC1,AC50,Cytochrome P450 3A4,15.8 µM (inconclusive)
COC(=O)c1cc(=O)n(Cc2ccco2)/c(=N/c2ccc(F)c(Cl)c2)s1,EC50,[4],8.9 µM (active)
same,EC50,[5],7.55 µM (active)
CCCNC(=O)OC[C@@H]1O[C@H](CCON=C(C)C)C=C[C@@H]1Oc1ccc(OC)cc1,AC50,Cytochrome P450 3A4,3.98 µM (inconclusive)
COc1ccc(CNCc2cc3c(C(C)(C)C)nn(-c4ccccc4)c3nc2O)cc1,EC50,[4],10.3 µM (active)
same,EC50,[5],14.2 µM (active)
O=C1COc2ccc(C(=O)COC(=O)c3cc(S(=O)(=O)N4CCOCC4)ccc3F)cc2N1,EC50,[1],> 112 µM (not active)
same,EC50,[2],22.9 µM (active)
OC(COc1cccc2ccccc12)CN1CCN(c2ccc(Cl)cc2)CC1 (stereo unspecified),CC50,[6],12 µM (active)
same,EC50,[7],19.7 µM (active)
same,EC50,Streptokinase A,31.1 µM (active)
same,EC50,Streptococcus,34.3 µM (active)
same,AC50,[8],6.37 µM (active)
Oc1nc2cc(NC(S)=Nc3ccccc3Cl)ccc2[nH]1,EC50,[2],> 112 µM (not active)
